Measurements: paper PMC6941823, “A dispensable paralog of succinate dehydrogenase subunit C mediates standing resistance towards a subclass of SDHI fungicides in Zymoseptoria tritici” (PLoS Pathogens, 2019)
Where two headings read alike, the source gives them in different places.

Columns and labels:
[1] = biological target: SQR (SDHC / altC) of IPO323 pTet::SDHC3 transformant, repressed (Zymoseptoria tritici, UniProt A0A1X7RQW2+F9X9V6+F9XH52+O42772); assay: Succinate-quinone (SQR) SDHI sensitivity assay on purified mitochondria, IPO323 pTet::SDHC3 repressed; format: biochemical; conditions: for RF (resistance factor), pTet Repressed (SDHC / altC): IC50 ratio compared to IPO323 values; for IC50: IPO323 pTet::SDHC3 transformant grown in presence of 30 mg.L^-1 doxycycline, mean of three ± SD
Description: (§1) Succinate-ubiquinone oxidoreductase (SQR) inhibition assays were performed on mitochondrial extracts from a panel of strains that were (i) either carrying a unique C-subunit encoding gene (ZtSDHC1, ZtSDHC1_A84I or Zt-SDHC3), or (ii) carrying two C-subunit encoding genes ZtSDHC1 and ZtSDHC3 (Table 1).
(§2) Biomass production, mitochondrial extraction and purification were performed as described in [14]. Succinate: ubiquinone/DCPIP sensitivity tests were performed as described in [14] with minor modification.

[2] = biological target: C_A84I-SQR (SDHC_A84I), IPO323_Flu21 mitochondria (Zymoseptoria tritici, UniProt F9X9V6+F9XH52+O42772, A84I); assay: Succinate-quinone (SQR) SDHI sensitivity assay on purified mitochondria, IPO323_Flu21; format: biochemical; conditions: for RF (resistance factor), IPO323_Flu21 (SDHC_A84I): IC50 ratio compared to IPO323 values; for IC50: mitochondria of UV mutant IPO323_Flu21, mean of three ± SD
Description: as §1
(§3) Biomass production, mitochondrial extraction and purification were performed as described in [14]. Succinate: ubiquinone/DCPIP sensitivity tests were performed as described in [14] with minor modification. The different mitochondrial suspensions were adjusted to similar initial velocity (1 OD595nm hour^-1) and inhibitor concentrations ranged between 0.047nM and 50μM with uniform 4x dilution steps (11 concentrations + DMSO control). Calculated absorbance slopes (OD/min) were used for IC50 calculations using GraphPad Prism 6.07 software non-linear curve fitting against log inhibitor concentrations.

[3] = biological target: altC-SQR (altC) of D024 SDHC1 KO mitochondria (Zymoseptoria tritici, UniProt A0A1X7RQW2+F9X9V6+O42772); assay: Succinate-quinone (SQR) SDHI sensitivity assay on purified mitochondria, 06STD024 SDHC1 KO; format: biochemical; conditions: for RF (resistance factor), D024 SDHC1 KO (altC): IC50 ratio compared to IPO323 values; for IC50: mitochondria of 06STD024 ZtSDHC1 deletion mutant (pure altC-SQR), mean of three ± SD
Description: as §1, §2

[4] = test system: Zymoseptoria tritici field and genetically modified strains; assay: Liquid culture assay for fungicide sensitivity determination; format: cell-based; conditions: liquid culture sensitivity, read-out: EC50 (nM) Mean
Description: Sensitivity towards commercial fungicides was determined for a set of 99 SHA-SDHI-naïve Z. tritici field isolates sampled in Europe between 2006 and 2009. The EC50 of these isolates was determined in liquid growth assays and the data obtained compared for each possible pair of SDHI fungicides (cross-resistance (XR) plots, Fig 1). […] Comparative succinate-quinone reductase (SQR) enzyme inhibition tests were performed with mitochondria extracted from a panel of SHA-SDHIs tolerant and sensitive isolates.
In order to characterize in more depth the mechanisms driving sensitivity differences across the isolates, a subset of eight isolates carrying the ZtSDHC3 gene was analyzed for their sensitivity to SDHIs, alt-SDHC expression and splicing patterns. Liquid culture growth sensitivity tests were performed to determine EC50s for this set of isolates towards a wide range of commercial and research SDHIs (S5 Table).
Pre-culture of the inoculum and fungicide sensitivity tests were performed following previously described procedures. Different ranges of inhibitor concentrations were used for population monitoring and for the detailed phenotyping of a selected set of individual field isolates and genetically modified strains. For fungicide sensitivity monitoring of European field populations, final inhibitors concentrations were between 100 mg.L^-1 and 0.0001 mg.L^-1 with uniform 10x dilution steps (7 inhibitor concentrations + DMSO control). For refined sensitivity analysis of a smaller panel of isolates final inhibitor concentrations ranged between 0.5 mM and 0.47 nM with uniform 4x dilution factor steps (11 inhibitor concentrations+ DMSO control).

[5] = test system: SQR (SDHC / altC) of IPO323 pTet::SDHC3 transformant, induced; assay: Succinate-quinone (SQR) SDHI sensitivity assay on purified mitochondria, IPO323 pTet::SDHC3 induced; format: biochemical, Zymoseptoria tritici; conditions: for RF (resistance factor), pTet Induced (SDHC / altC): IC50 ratio compared to IPO323 values; for IC50: IPO323 pTet::SDHC3 transformant grown in the absence of doxycycline, mean of three ± SD
Description: as §1, §2

[6] = biological target: SQR of 06STD024 (SDHC / altC) mitochondria (Zymoseptoria tritici, UniProt A0A1X7RQW2+F9X9V6+F9XH52+O42772); assay: Succinate-quinone (SQR) SDHI sensitivity assay on purified mitochondria, 06STD024; format: biochemical; conditions: for RF (resistance factor), 06STD024 (SDHC / altC): IC50 ratio compared to IPO323 values; for IC50: mitochondria of field isolate 06STD024, mean of three ± SD
Description: as §1, §2

[7] = biological target: WT-SQR (SDHC), IPO323 mitochondria (Zymoseptoria tritici, UniProt F9X9V6+F9XH52+O42772); assay: Succinate-quinone (SQR) SDHI sensitivity assay on purified mitochondria, IPO323; format: biochemical; conditions: mitochondria of IPO323; mean of three determinations ± SD; read-out: Succinate-quinone IC50, IPO323 (SDHC)
Description: as §1, §3

[8] = biological target: SQR (SDHC) of D024 SDHC3 KO mitochondria (Zymoseptoria tritici, UniProt F9X9V6+F9XH52+O42772); assay: Succinate-quinone (SQR) SDHI sensitivity assay on purified mitochondria, 06STD024 SDHC3 KO; format: biochemical; conditions: for RF (resistance factor), D024 SDHC3 KO (SDHC): IC50 ratio compared to IPO323 values; for IC50: mitochondria of 06STD024 ZtSDHC3 deletion mutant, mean of three ± SD
Description: as §1, §3

WT-SQR (SDHC), IPO323 mitochondria, sequence (F9WWR1 entry or part of it): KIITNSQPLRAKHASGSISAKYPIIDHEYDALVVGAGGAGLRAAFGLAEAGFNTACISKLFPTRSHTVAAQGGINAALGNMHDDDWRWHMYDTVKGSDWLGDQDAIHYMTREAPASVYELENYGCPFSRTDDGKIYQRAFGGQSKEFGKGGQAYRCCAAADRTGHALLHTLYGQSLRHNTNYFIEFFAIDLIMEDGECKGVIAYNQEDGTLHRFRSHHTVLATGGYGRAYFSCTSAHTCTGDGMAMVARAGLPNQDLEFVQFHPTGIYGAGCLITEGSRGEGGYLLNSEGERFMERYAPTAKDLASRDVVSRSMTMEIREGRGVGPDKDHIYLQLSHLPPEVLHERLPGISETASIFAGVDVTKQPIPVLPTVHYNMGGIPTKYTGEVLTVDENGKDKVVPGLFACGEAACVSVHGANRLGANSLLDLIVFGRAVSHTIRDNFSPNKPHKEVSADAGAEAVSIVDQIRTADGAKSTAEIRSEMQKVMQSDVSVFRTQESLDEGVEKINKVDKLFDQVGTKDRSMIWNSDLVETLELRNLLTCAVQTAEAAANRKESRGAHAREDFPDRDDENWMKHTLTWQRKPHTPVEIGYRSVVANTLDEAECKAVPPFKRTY
WT-SQR (SDHC), IPO323 mitochondria, sequence (F9X9V6 entry or part of it): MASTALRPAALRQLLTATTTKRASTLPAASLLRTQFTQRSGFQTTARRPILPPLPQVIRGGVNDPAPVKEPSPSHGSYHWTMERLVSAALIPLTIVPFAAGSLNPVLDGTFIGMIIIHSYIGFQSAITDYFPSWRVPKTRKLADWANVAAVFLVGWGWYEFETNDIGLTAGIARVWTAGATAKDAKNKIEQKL
WT-SQR (SDHC), IPO323 mitochondria, sequence (O42772 19-297): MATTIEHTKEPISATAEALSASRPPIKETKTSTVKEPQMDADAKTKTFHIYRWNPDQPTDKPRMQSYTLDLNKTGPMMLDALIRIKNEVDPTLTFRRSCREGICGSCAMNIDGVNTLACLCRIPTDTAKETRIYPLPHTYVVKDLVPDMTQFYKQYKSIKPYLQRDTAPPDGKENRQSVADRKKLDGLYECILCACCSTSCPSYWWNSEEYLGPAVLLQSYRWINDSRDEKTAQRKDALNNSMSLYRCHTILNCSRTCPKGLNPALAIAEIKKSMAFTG
WT-SQR (SDHC), IPO323 mitochondria, sequence (F9XH52 entry or part of it): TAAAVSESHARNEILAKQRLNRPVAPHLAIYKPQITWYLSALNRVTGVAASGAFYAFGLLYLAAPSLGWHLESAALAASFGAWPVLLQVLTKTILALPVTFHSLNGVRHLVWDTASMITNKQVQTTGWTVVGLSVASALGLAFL
altC-SQR (altC) of D024 SDHC1 KO mitochondria, sequence (A0A1X7RQW2 36-181): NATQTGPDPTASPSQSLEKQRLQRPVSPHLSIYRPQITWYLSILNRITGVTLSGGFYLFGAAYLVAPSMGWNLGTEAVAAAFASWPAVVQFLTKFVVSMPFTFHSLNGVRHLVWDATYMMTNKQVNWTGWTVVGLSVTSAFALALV
altC-SQR (altC) of D024 SDHC1 KO mitochondria, sequence (O42772 20-297): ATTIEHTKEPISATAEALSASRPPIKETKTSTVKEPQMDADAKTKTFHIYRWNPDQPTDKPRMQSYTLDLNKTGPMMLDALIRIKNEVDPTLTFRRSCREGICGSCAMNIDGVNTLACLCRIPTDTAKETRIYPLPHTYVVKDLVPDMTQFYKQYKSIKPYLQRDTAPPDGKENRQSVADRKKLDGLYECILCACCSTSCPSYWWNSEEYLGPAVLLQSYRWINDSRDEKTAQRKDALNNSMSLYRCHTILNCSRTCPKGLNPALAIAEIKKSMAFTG
altC-SQR (altC) of D024 SDHC1 KO mitochondria, sequence (F9X9V6 1-193): as the sequence (F9X9V6 entry or part of it) above
altC-SQR (altC) of D024 SDHC1 KO mitochondria, sequence (F9WWR1 41-643 partner): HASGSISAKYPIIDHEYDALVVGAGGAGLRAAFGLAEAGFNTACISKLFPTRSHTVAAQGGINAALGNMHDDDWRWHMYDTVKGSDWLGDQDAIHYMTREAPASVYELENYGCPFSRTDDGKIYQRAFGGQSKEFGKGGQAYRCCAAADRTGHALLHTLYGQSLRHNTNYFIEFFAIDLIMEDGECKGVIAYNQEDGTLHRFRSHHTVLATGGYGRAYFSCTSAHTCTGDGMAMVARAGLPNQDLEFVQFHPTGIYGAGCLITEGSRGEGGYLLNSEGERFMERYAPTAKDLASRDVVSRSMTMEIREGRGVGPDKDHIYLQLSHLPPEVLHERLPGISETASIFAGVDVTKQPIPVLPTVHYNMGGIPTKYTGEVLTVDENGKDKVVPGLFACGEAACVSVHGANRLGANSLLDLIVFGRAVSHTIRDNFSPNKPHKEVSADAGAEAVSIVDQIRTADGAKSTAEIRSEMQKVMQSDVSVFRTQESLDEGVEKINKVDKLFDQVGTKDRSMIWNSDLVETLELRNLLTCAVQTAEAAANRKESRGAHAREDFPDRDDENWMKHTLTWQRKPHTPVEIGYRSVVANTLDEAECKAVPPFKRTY
SQR of 06STD024 (SDHC / altC) mitochondria, sequence (A0A1X7RQW2 36-181): as the sequence (A0A1X7RQW2 36-181) above
SQR of 06STD024 (SDHC / altC) mitochondria, sequence (O42772 19-297): as the sequence (O42772 19-297) above
SQR of 06STD024 (SDHC / altC) mitochondria, sequence (F9X9V6 1-193): as the sequence (F9X9V6 entry or part of it) above
SQR of 06STD024 (SDHC / altC) mitochondria, sequence (F9XH52 44-187): as the sequence (F9XH52 entry or part of it) above
SQR of 06STD024 (SDHC / altC) mitochondria, sequence (F9WWR1 29-643 partner): as the sequence (F9WWR1 entry or part of it) above

| Compound | RF (resistance factor), pTet Repressed (SDHC / altC) [1] | IC50 [1] [nM] | RF (resistance factor), IPO323_Flu21 (SDHC_A84I) [2] | IC50 [2] [nM] | RF (resistance factor), D024 SDHC1 KO (altC) [3] | IC50 [3] [nM] | EC50 ([4]; strain 06STD024) [nM] | EC50 ([4]; strain 07STGB009) [nM] | EC50 ([4]; strain 09STD041) [nM] | EC50 ([4]; strain 09STD053) [nM] | EC50 ([4]; strain 09STF011) [nM] | EC50 ([4]; strain 09STF037) [nM] | EC50 ([4]; strain 09STF112) [nM] | EC50 ([4]; strain 09STIR20.3) [nM] | EC50 ([4]; strain Flu21 (SDHC1_A84I)) [nM] | EC50 ([4]; strain IPO323) [nM] | EC50 ([4]; strain IPO94269) [nM] | EC50 ([4]; strain KO_SDHC1_T1) [nM] | EC50 ([4]; strain KO_SDHC1_T3) [nM] | EC50 ([4]; strain KO_SDHC3_T4) [nM] | further results |
| --- | --- | --- | --- | --- | --- | --- | --- | --- | --- | --- | --- | --- | --- | --- | --- | --- | --- | --- | --- | --- | --- |
| Cn1cc(C(=O)Nc2ccc(F)cc2-c2ccc(Cl)c(Cl)c2)c(C(F)F)n1 [Bixafen] | 1.1 | 1.5 ± 0.6 | 2.3 | 3.2 ± 0.5 | 1.5 | 2.1 ± 0.6 | 83.8 | 102 | 219 | 102 | 70.1 | 111 | 171 | 204 | 959 | 106 | 109 | 710 | 447 | 204 | EC50 ([4]; strain KO_SDHC3_T13): 180 nM; EC50 ([4]; strain pTet::SDHC3_I78A_T1): 94.3 nM; EC50 ([4]; strain pTet::SDHC3_I78A_T5): 174 nM; EC50 ([4]; strain pTet::SDHC3_I78A_T15): 104 nM; EC50 ([4]; strain pTet::SDHC3_I78A_T35): 27.7 nM; EC50 ([4]; strain pTet::SDHC3_T1): 141 nM; EC50 ([4]; strain pTet::SDHC3_T2): 185 nM; EC50 ([4]; strain pTet::SDHC3_T3): 120 nM; EC50 ([4]; strain pTet::SDHC3_T7): 192 nM; RF (resistance factor), pTet Induced (SDHC / altC) [5]: 1.3; IC50 [5]: 1.8 ± 0.4 nM; RF (resistance factor), 06STD024 (SDHC / altC) [6]: 1.3; IC50 [6]: 1.8 ± 0.7 nM; IC50 [7]: 1.4 ± 0.1 nM; RF (resistance factor), D024 SDHC3 KO (SDHC) [8]: 1.0; IC50 [8]: 1.3 ± 0.2 nM |
| Cn1cc(C(=O)Nc2cccc3c2[C@@H]2CC[C@H]3C2=C(Cl)Cl)c(C(F)F)n1 (racemic) [Benzovindiflupyr] | 0.8 | 0.5 ± 0.03 | 1.4 | 1 ± 0.2 | 0.9 | 0.6 ± 0.05 | 17 | 15 | 54 | 88 | 96 | 54 | 204 | 147 | 927 | 39 | 108 | 59 | 40 | 93 | EC50 ([4]; strain KO_SDHC3_T13): 90 nM; EC50 ([4]; strain pTet::SDHC3_I78A_T1): 28 nM; EC50 ([4]; strain pTet::SDHC3_I78A_T5): 87 nM; EC50 ([4]; strain pTet::SDHC3_I78A_T15): 47 nM; EC50 ([4]; strain pTet::SDHC3_I78A_T35): 20 nM; EC50 ([4]; strain pTet::SDHC3_T1): 40 nM; EC50 ([4]; strain pTet::SDHC3_T2): 44 nM; EC50 ([4]; strain pTet::SDHC3_T3): 30 nM; EC50 ([4]; strain pTet::SDHC3_T7): 50 nM; RF (resistance factor), pTet Induced (SDHC / altC) [5]: 0.8; IC50 [5]: 0.5 ± 0.09 nM; RF (resistance factor), 06STD024 (SDHC / altC) [6]: 0.8; IC50 [6]: 0.5 ± 0.17 nM; IC50 [7]: 0.7 ± 0.2 nM; RF (resistance factor), D024 SDHC3 KO (SDHC) [8]: 0.8; IC50 [8]: 0.6 ± 0.11 nM |
| CC(C)C1C2CCC1c1c(NC(=O)c3cn(C)nc3C(F)F)cccc12 (stereo not drawn) [Isopyrazam] | 1.5 | 1.2 ± 0.3 | 6.4 | 5.2 ± 2.6 | 2.9 | 2.4 ± 0.5 | 108 | 75.5 | 116 | 56 | 109 | 46.1 | 66.2 | 112 | 785 | 46 | 72.8 | 332 | 293 | 83.7 | EC50 ([4]; strain KO_SDHC3_T13): 96.7 nM; EC50 ([4]; strain pTet::SDHC3_I78A_T1): 60.4 nM; EC50 ([4]; strain pTet::SDHC3_I78A_T5): 120 nM; EC50 ([4]; strain pTet::SDHC3_I78A_T15): 81.1 nM; EC50 ([4]; strain pTet::SDHC3_I78A_T35): 17 nM; EC50 ([4]; strain pTet::SDHC3_T1): 195 nM; EC50 ([4]; strain pTet::SDHC3_T2): 284 nM; EC50 ([4]; strain pTet::SDHC3_T3): 175 nM; EC50 ([4]; strain pTet::SDHC3_T7): 233 nM; RF (resistance factor), pTet Induced (SDHC / altC) [5]: 2.1; IC50 [5]: 1.7 ± 0.4 nM; RF (resistance factor), 06STD024 (SDHC / altC) [6]: 3.3; IC50 [6]: 2.6 ± 0.6 nM; IC50 [7]: 0.8 ± 0.1 nM; RF (resistance factor), D024 SDHC3 KO (SDHC) [8]: 0.7; IC50 [8]: 0.6 ± 0.2 nM |
| Cn1cc(C(=O)Nc2ccccc2-c2cc(F)c(F)c(F)c2)c(C(F)F)n1 [Fluxapyroxad] | 1.1 | 4.5 ± 1 | 1.2 | 5.1 ± 0.7 | 0.7 | 3.1 ± 0.4 | 83.2 | 72.2 | 142 | 132 | 119 | 110 | 152 | 295 | 818 | 102 | 121 | 438 | 361 | 216 | EC50 ([4]; strain KO_SDHC3_T13): 144 nM; EC50 ([4]; strain pTet::SDHC3_I78A_T1): 115 nM; EC50 ([4]; strain pTet::SDHC3_I78A_T5): 265 nM; EC50 ([4]; strain pTet::SDHC3_I78A_T15): 145 nM; EC50 ([4]; strain pTet::SDHC3_I78A_T35): 79.5 nM; EC50 ([4]; strain pTet::SDHC3_T1): 148 nM; EC50 ([4]; strain pTet::SDHC3_T2): 129 nM; EC50 ([4]; strain pTet::SDHC3_T3): 102 nM; EC50 ([4]; strain pTet::SDHC3_T7): 197 nM; RF (resistance factor), pTet Induced (SDHC / altC) [5]: 0.8; IC50 [5]: 3.3 ± 0.6 nM; RF (resistance factor), 06STD024 (SDHC / altC) [6]: 0.8; IC50 [6]: 3.5 ± 0.3 nM; IC50 [7]: 4.3 ± 1.1 nM; RF (resistance factor), D024 SDHC3 KO (SDHC) [8]: 0.8; IC50 [8]: 3.3 ± 0.8 nM |
